In data set [1] the target is T1, Solute carrier organic anion transporter family member 1B3 (Homo sapiens, UniProt Q9NPD5).
T1 sequence (Q9NPD5 whole entry): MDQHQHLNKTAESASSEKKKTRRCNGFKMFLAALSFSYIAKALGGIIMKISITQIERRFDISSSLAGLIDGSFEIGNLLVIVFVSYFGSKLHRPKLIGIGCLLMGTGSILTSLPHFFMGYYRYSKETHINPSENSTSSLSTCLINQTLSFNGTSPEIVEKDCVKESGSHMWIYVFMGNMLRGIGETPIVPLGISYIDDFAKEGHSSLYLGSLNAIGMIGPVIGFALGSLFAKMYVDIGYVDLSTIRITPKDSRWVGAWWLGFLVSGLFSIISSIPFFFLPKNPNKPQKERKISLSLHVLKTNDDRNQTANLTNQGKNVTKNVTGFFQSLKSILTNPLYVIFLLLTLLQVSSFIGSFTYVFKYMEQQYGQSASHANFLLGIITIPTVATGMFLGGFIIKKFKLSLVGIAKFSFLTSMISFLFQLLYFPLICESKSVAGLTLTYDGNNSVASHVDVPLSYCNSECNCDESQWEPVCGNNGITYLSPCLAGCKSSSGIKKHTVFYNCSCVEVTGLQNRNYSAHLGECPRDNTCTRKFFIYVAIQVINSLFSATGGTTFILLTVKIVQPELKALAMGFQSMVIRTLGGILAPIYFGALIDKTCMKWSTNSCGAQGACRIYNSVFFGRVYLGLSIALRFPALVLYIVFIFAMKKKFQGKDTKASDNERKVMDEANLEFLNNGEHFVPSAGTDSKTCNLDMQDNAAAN
The note with it: chinese hamster, cho, 10 µM.

In data set [2] the target is T2, Solute carrier organic anion transporter family member 1B1 (Homo sapiens, UniProt Q9Y6L6).
T2 sequence (Q9Y6L6 whole entry): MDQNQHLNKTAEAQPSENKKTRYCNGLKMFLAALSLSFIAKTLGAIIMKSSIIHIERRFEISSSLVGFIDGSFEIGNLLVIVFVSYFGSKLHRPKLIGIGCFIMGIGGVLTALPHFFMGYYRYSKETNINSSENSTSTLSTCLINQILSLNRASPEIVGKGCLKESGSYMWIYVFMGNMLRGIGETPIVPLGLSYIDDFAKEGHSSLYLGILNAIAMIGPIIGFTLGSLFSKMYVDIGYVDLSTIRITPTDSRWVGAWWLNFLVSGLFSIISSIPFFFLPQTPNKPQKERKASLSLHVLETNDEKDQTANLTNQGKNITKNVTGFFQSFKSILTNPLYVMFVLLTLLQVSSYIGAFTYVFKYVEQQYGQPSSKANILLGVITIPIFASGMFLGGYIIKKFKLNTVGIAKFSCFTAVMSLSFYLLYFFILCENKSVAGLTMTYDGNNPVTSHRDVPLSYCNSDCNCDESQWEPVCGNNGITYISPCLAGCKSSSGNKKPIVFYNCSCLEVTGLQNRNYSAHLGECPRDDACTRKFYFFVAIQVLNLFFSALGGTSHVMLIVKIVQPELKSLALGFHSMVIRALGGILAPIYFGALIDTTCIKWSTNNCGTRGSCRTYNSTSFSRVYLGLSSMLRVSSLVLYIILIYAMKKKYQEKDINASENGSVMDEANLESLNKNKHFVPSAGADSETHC
To be noted: chinese hamster, cho, 10 µM.

Residues, ends and D or L forms follow the SMILES beside them.

With `Cc1cc(N)c2ccccc2[n+]1CCCCCCCCCC[n+]1c(C)cc(N)c2ccccc21.[Cl-].[Cl-]` [DEQUALINIUM CHLORIDE], the residual activity in data set [1] was 111.4%; in data set [2], 158.8%.

On to `COc1cc2c(cc1OC)[C@@H]1C(=O)c3ccc4c(c3O[C@@H]1CO2)CC(C(C)C)O4` (some centres undefined) [DIHYDROROTENONE], for which the residual activity was 63.71% in data set [1] and 53.61% in data set [2].

Take `O=c1cccc2n1C[C@@H]1CNC[C@H]2C1` [CYTISINICLINE]: the residual activity in data set [1] was determined as 106.2%; in data set [2], 99.71%.

Turning to `COC(=O)[C@]1(C)CC[C@]2(C)CC[C@]3(C)C4=CCc5c(cc(O)c(O)c5C)[C@]4(C)CC[C@@]3(C)[C@@H]2C1` [PRISTIMEROL], the residual activity is given as 86.64% in data set [1] and 70.1% in data set [2].

On to `COc1c(C(C)C)oc2cc3oc(=O)ccc3cc12` [PEUCEDANIN], for which the residual activity in data set [1] came out at 105.2%; in data set [2], 101.3%.

As to `C[C@]12CC[C@@H]3c4ccc(O)cc4CC[C@H]3[C@@H]1CC[C@@H]2OC(=O)CCC1CCCC1` [ESTRADIOL CYPIONATE], the residual activity in data set [1] is given as 90.49%; in data set [2], 81.59%.

As to `Cl.NC(CO)C(=O)NNCc1ccc(O)c(O)c1O` (centres undefined) [BENSERAZIDE HYDROCHLORIDE], the residual activity in data set [1] is 93.94%; in data set [2], 93.51%.

Take `Nc1ccc(S(=O)(=O)Nc2nccs2)cc1` [SULFATHIAZOLE]: the residual activity in data set [1] is listed as 85.21%; in data set [2] it was 89.12%.

Take `O=C(O)CCCc1ccc(N(CCCl)CCCl)cc1` [CHLORAMBUCIL]: the residual activity in data set [1] is given as 102.7%; in data set [2] it was 123.9%.

Take `N[C@@H](Cc1ccccc1)C(=O)N[C@@H](Cc1ccc(O)cc1)C(=O)O` [PHENYLALANYLTYROSINE] (H-Phe-Tyr-OH): the residual activity was found to be 68.6% in data set [1] and 78.59% in data set [2].

Take `Nc1c2ccccc2nc2ccccc12` [AMINACRINE]: the residual activity was 80.82% in data set [1] and 54.19% in data set [2].

Turning to `C[C@]12CC[C@H]3C(=CCc4cc(O)ccc43)[C@@H]1CCC2=O` [EQUILIN], the residual activity worked out at 96.05% in data set [1] and 88.55% in data set [2].

Take `Nc1ccc(S(N)(=O)=O)cc1` [SULFANILAMIDE]: the residual activity in data set [1] stood at 155.8%; in data set [2] it was 113.8%.

With `CCCCOc1ccc(OCCCN2CCOCC2)cc1.Cl` [PRAMOXINE HYDROCHLORIDE], the residual activity is 99.07% in data set [1] and 112% in data set [2].

Regarding `Oc1ncnc2[nH]ncc12` [ALLOPURINOL], the residual activity in data set [1] is on record as 84.36%; in data set [2], 68.8%.

In the case of `NC(Cc1c[nH]cn1)C(=O)Nc1ccc2ccccc2c1` (centres undefined), the residual activity was found to be 105.8% in data set [1] and 89.48% in data set [2].

With `Oc1cc2c(cc1O)[C@@H]1c3ccc(O)c(O)c3OC[C@]1(O)C2` [HEMATOXYLIN], the residual activity in data set [1] was 91.69%; in data set [2] it was 88.87%.

For the molecule `C[C@@H]1CC[C@@]2(OC1)O[C@H]1[C@@H](O)[C@H]3[C@@H]4CC[C@H]5C[C@@H](O[C@@H]6O[C@H](CO)[C@H](O[C@@H]7O[C@H](CO)C(O)[C@H](O[C@@H]8OC[C@@H](O)[C@H](O)[C@H]8O)[C@H]7O[C@@H]7O[C@H](CO)[C@H](O)[C@H](O[C@@H]8O[C@H](CO)[C@@H](O)[C@H](O)[C@H]8O)[C@H]7O)[C@H](O)[C@H]6O)[C@H](O)C[C@]5(C)[C@H]4CC[C@]3(C)[C@H]1[C@@H]2C` (some centres undefined) [DIGITONIN], the residual activity in data set [1] is given as 98.34%; in data set [2], 76.09%.

Consider `N#Cc1c(Cl)c(Cl)c(Cl)c(C#N)c1Cl` [CHLOROTHALONIL], for which the residual activity turned out to be 81.58% in data set [1] and 92.97% in data set [2].

For `Cc1cc2cc3c(C)cc(=O)oc3c(C)c2o1` [TRIOXSALEN], the residual activity stood at 86.89% in data set [1] and 103.1% in data set [2].

On to `OCC(O)CN1CCN(c2ccccc2)CC1` (centres undefined) [DROPROPIZINE], for which the residual activity in data set [1] worked out at 96.03%; in data set [2], 71.05%.

Take `CC(=O)OCC1=C(C(=O)[O-])N2C(=O)[C@@H](NC(=O)CSc3ccncc3)[C@H]2SC1.[Na+]` [CEPHAPIRIN SODIUM]: the residual activity came out at 94.33% in data set [1] and 85.65% in data set [2].

As for `Cc1ccccc1C(OCCN(C)C)c1ccccc1.O=C(O)CC(O)(CC(=O)O)C(=O)O` (centres undefined) [ORPHENADRINE CITRATE], the residual activity came to 96.44% in data set [1] and 87.55% in data set [2].

With `CC1(C)S[C@@H]2[C@H](NC(=O)[C@H](N)c3ccccc3)C(=O)N2[C@H]1C(=O)[O-].[Na+]` [AMPICILLIN SODIUM], the residual activity was 88.9% in data set [1] and 76.76% in data set [2].

Regarding `CC1(C)C(C(Cl)Cl)C2(Cl)C(Cl)C(Cl)C1(Cl)C2(Cl)Cl` (centres undefined) [TOXAPHENE], the residual activity in data set [1] is 109.5%; in data set [2] it was 111.3%.

For the molecule `CC(=O)O[C@H]1C[C@@H](OC(C)=O)C(C)(C)[C@@H]2C[C@@H](OC(C)=O)[C@]3(C)[C@H](CC[C@]4(C)[C@H](c5ccoc5)C(=O)[C@H]5O[C@@]534)[C@@]12C`, the values for the residual activity in data set [1] and in data set [2] were 57.61% and 26.02%, respectively.

On to `CC(=O)Oc1cc2c(c(C)c1OC(C)=O)CC=C1[C@]2(C)CC[C@]2(C)[C@@H]3C[C@](C)(C(=O)O)CC[C@]3(C)CC[C@@]12C`, for which the residual activity in data set [1] is 13.7%; in data set [2], 47.56%.

In the case of `Nc1ccn([C@@H]2O[C@H](CO)[C@@H](O)[C@@H]2O)c(=O)n1` [CYTARABINE], the residual activity in data set [1] worked out at 95.76%; in data set [2] it was 78.64%.

`CC(C(=O)O)c1ccc(N2Cc3ccccc3C2=O)cc1` (centres undefined) [INDOPROFEN]: the residual activity in data set [1] is listed as 96.18%; in data set [2], 97.2%.

Regarding `Cl.Nc1ccc(/N=N/c2ccccc2)c(N)n1` [PHENAZOPYRIDINE HYDROCHLORIDE], the residual activity amounted to 115.3% in data set [1] and 115.4% in data set [2].

Regarding `Cl.Clc1ccc(C(OCCN2CCCCC2)c2ccccc2)cc1` (centres undefined) [CLOPERASTINE HYDROCLORIDE], the figures for the residual activity in data set [1] and in data set [2] were 89.01% and 53.44%, respectively.

In the case of `NC1=NCCN1CC(=O)O` [CYCLOCREATINE], the results for the residual activity in data set [1] and in data set [2] were 127.5% and 108.2%, respectively.

Regarding `COc1c(CC(=O)c2cc3c(cc2O)OC(C)(C)C(O)C3)ccc2c1C=CC(C)(C)O2` (centres undefined) [DIHYDROMUNDULETONE], the residual activity in data set [1] came to 58.7%; in data set [2], 30.26%.

Turning to `CC1(O)CC2C(CC1O)C2(C)C` (centres undefined) [3,4-DIHYDROXYCARANE], the residual activity in data set [1] was 98.2%; in data set [2] it was 101%.

Turning to `CC(NCCc1ccc(O)cc1)C(O)c1ccc(O)cc1.Cl` (centres undefined) [RITODRINE HYDROCHLORIDE], the residual activity in data set [1] was 112.7%; in data set [2], 125.6%.

`CC[C@@H](CO)NCCN[C@@H](CC)CO.Cl`: the residual activity in data set [1] amounted to 86.34%; in data set [2] it was 71.57%.

On to `CCOC(=O)C(Cc1ccc(O)cc1)NC(C)=O` (centres undefined) [ACETYL TYROSINE ETHYL ESTER], for which the residual activity in data set [1] was determined as 103.5%; in data set [2], 118.5%.

The values above are taken from ChEMBL document CHEMBL3039007, “Structure-based identification of OATP1B1/3 inhibitors” (Mol Pharmacol, 2013).
